Structures can show the parent of a compound that is named as a salt.
Experiments:
Aurora2 (Aurora-A) = target: T1, Aurora2 (Aurora-A) (Homo sapiens, UniProt O14965); test: Aurora 2 (Aurora A) kinase radioactivity scintillation assay using nickel chelate Flash plates; assay type: biochemical; conditions: 10 nM Aurora-A, 500 nM NuMA substrate, 1 μM ATP with [33P] ATP, 10 mM MgCl2, 30 minutes, 37° C.
T1 construct: Aurora-A: the full length recombinant protein including an N-terminal poly-histidine tail has been expressed in E. coli; poly-histidine (N); made in house; host or cells: E. coli
T1 sequence (O14965 1-403): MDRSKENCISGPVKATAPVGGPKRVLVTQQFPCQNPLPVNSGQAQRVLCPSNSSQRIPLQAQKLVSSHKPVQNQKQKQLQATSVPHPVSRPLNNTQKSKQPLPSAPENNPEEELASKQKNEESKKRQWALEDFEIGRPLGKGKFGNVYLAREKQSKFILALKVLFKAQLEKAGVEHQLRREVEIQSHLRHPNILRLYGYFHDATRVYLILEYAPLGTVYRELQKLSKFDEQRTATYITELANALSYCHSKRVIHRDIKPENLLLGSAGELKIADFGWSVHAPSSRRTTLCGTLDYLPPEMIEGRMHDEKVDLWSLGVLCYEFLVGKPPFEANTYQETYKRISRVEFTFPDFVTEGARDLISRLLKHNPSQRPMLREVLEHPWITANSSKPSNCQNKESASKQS
Description: (§1) Aurora 1 and 2 (Respectively. Aurora B and A)
(§2) The inhibitory effect of compounds with respect to the Aurora 1 and 2 kinases is determined with a radioactivity scintillation assay using nickel chelate.
(§3) The kinase activity of Aurora is measured by the phosphorylation of NuMA-histidine substrate in the presence of radiolabelled ATP ([^33P] ATP) using 96 well Flash plates where the nickel-chelate is linked to the surface of the microplate. The amount of ^33P incorporated to the substrate NuMA is proportional to the aurora activity.
(§4) The Flash plates used are nickel-chelate 96 well plates (Perkin Elmer, model SMP107).
(§5) The products to be evaluated are incubated in a 100 μl reaction volume per well in the presence of 10 nM of Aurora-B or Aurora-A, 500 nM of NuMA substrate in the following buffer: 50 mM of NaCl, 5 mM MgCl2, (Aurora-B) or 10 mM MgCl2 (Aurora-A) and 1 mM of DTT at 37° C.
(§6) 80 μL of enzyme/substrate incubation buffer is distributed in each well, followed by 10 μL of solution of compound to be measured with various concentrations. The reaction is started by adding 1 μM of ATP (final concentration) containing 0.2 μCi of [^33P] ATP (10 μL). After 30 minutes of incubation the reaction is stopped by removal of the reaction mixture and each well is washed twice with 300 μl of buffer Tris/HCl. The radioactivity is measured in each well using a Packard Top count scintillation counter instrument.
(§7) The enzymatic activity is expressed as counts per minute obtained in 30 minutes after subtraction of the background noise (reaction medium without enzyme). The measurement is expressed as percentage of inhibition of Aurora activity versus the control. To generate IC50 values, compounds of the invention are tested at different concentration and the percentage of inhibition are plotted as function of compound concentration, IC50s are calculated using the Xlfit 4 curve fitting software.

Aurora1 (Aurora-B) = target: T2, Aurora1 (Aurora-B) (Homo sapiens, UniProt Q96GD4); test: Aurora 1 (Aurora B) kinase radioactivity scintillation assay using nickel chelate Flash plates; assay type: biochemical; conditions: 10 nM Aurora-B (co expressed with C3 fragment of INCEP), 500 nM NuMA substrate, 1 μM ATP with [33P] ATP, 5 mM MgCl2, 30 minutes, 37° C.
T2 construct: Aurora-B: the full length protein (His tagged in N-terminal) has been co expressed in SF9 cells; poly-histidine (N); made in house; host or cells: SF9 cells
Description: as §1, §2, §3, §4, §5, §6, §7

T2 sequence (Q96GD4 whole entry, species assumed, the tested form may be a part): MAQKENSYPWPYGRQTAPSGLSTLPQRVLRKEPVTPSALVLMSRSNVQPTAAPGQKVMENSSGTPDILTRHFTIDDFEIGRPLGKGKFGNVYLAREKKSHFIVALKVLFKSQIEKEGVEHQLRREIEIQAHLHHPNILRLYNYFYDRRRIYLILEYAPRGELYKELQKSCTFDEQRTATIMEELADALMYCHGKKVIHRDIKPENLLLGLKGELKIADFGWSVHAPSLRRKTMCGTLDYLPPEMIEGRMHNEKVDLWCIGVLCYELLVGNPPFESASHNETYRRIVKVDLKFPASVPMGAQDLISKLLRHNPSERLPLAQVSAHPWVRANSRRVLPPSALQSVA
T2 sequence (Q9NQS7 821-918 partner limits assumed, species assumed): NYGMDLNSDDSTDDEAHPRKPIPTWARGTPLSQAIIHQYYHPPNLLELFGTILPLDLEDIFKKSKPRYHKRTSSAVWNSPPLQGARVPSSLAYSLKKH

| SMILES | IC50 (Aurora2 (Aurora-A)) | IC50 (Aurora1 (Aurora-B)) |
| --- | --- | --- |
| CCOC(=O)c1[nH]cc2c1NC1=C(C(=O)CNC1)C2c1ccc(Sc2nc3cc(O)ccc3[nH]2)o1 (stereo not shown) [Example 123, 9-[5-(5-Hydroxy-1H-benzimidazol-2-ylsulfanyl)-furan-2-yl]-8-oxo-4,5,6,7,8,9-hexahydro-2H-pyrrolo[3,4-b]-1,7-naphthyridine-3-carboxylic acid ethyl ester hydrochloride] | 813 nM | 72 nM |
| Cn1c(-c2ccc(Cl)cc2)cnc1Sc1ccc(C2C3=C(CNCC3=O)Nc3n[nH]cc32)o1 (stereo not shown) [Example 94, 4-{5-[5-(4-Chloro-phenyl)-1-methyl-1H-imidazol-2-ylsulfanyl]-furan-2-yl}-2,4,6,7,8,9-hexahydro-pyrazolo[3,4-b]-1,7-naphthyridin-5-one; compound with trifluoro-acetic acid] | 9810 nM | 1220 nM |
| Cn1c(Sc2ccc(C3C4=C(CCCC4=O)Nc4n[nH]cc43)o2)nc2ccccc21 (stereo not shown) [Example 82, 4-[5-(1-Methyl-1H-benzimidazol-2-ylsulfanyl)-furan-2-yl]-2,4,6,7,8,9-hexahydro-pyrazolo[3,4-b]quinolin-5-one; compound with trifluoro-acetic acid] | 1340 nM | 150 nM |
| Cc1ccc2[nH]c(Sc3ccc(C4C5=C(CNCC5=O)Nc5n[nH]cc54)s3)nc2c1 (stereo not shown) [Example 103, 4-[5-(5-Methyl-1H-benzoimidazol-2-ylsulfanyl)-thiophen-2-yl]-2,4,6,7,8,9-hexahydro-pyrazolo[3,4-b]-1,7-naphthyridin-5-one; compound with trifluoro-acetic acid] | 4720 nM | 299 nM |
| CCOC(=O)c1[nH]cc2c1NC1=C(C(=O)CCCC1)C2c1ccc(Sc2nc3ccccc3[nH]2)o1 (stereo not shown) [Example 107, 10-[5-(1H-Benzoimidazol-2-ylsulfanyl)-furan-2-yl]-9-oxo-2,4,5,6,7,8,9,10-octahydro-2,4-diaza-cyclohepta[f]indene-3-carboxylic acid ethyl ester, compound with trifluoroacetic acid] | 2940 nM | 2580 nM |
| Cc1ccc2[nH]c(Sc3ccc(C4C5=C(CC(C)(C)CC5=O)Nc5n[nH]cc54)s3)nc2c1 (stereo not shown) [Example 102, 7,7-Dimethyl-4-[5-(5-methyl-1H-benzoimidazol-2-ylsulfanyl)-thiophen-2-yl]-2,4,6,7,8,9-hexahydro-pyrazolo[3,4-b]quinolin-5-one] | 596 nM | 45 nM |
| Cc1c[nH]c(Sc2ccc(C3C4=C(CCCC4=O)Nc4n[nH]cc43)o2)n1 (stereo not shown) [Example 78, 4-[5-(4-methyl-1H-imidazol-2-ylsulfanyl)-furan-2-yl]-2,4,6,7,8,9-hexahydro-pyrazolo[3,4-b]quinolin-5-one; compound with trifluoro-acetic acid] | 331 nM | 121 nM |
| Cc1nc(Sc2ccc(C3C4=C(CCCC4=O)Nc4n[nH]cc43)o2)[nH]c1C (stereo not shown) [Example 98, 4-[5-(4,5-Dimethyl-1H-imidazol-2-ylsulfanyl)-furan-2-yl]-2,4,6,7,8,9-hexahydro-pyrazolo[3,4-b]quinolin-5-one] | 338 nM | 231 nM |

The next compounds have a lower IC50 (Aurora2 (Aurora-A)) than those just listed; values first:

| IC50 (Aurora2 (Aurora-A)) | IC50 (Aurora1 (Aurora-B)) | SMILES |
| --- | --- | --- |
| 23 nM | 11 nM | CC1(C)CC(=O)C2=C(C1)Nc1c(c[nH]c1C(N)=O)C2c1ccc(Sc2nc3ccccc3[nH]2)o1 (stereo not shown) [Example 125, 9-[5-(1H-Benzimidazol-2-ylsulfanyl)-furan-2-yl]-6,6-dimethyl-8-oxo-4,5,6,7,8,9-hexahydro-2H-pyrrolo[3,4-b]quinoline-3-carboxamide] |
| 61 nM | 9 nM | O=C1CCCC2=C1C(c1ccc(Sc3nc4cc(C(F)(F)F)ccc4[nH]3)o1)c1cn[nH]c1N2 (stereo not shown) [Example 95, 4-[5-(5-Trifluoromethyl-1H-benzimidazol-2-ylsulfanyl)-furan-2-yl]-1,4,6,7,8,9-hexahydro-pyrazolo[3,4-b]quinolin-5-one] |
| 29 nM | 7 nM | CCCCCC1CC(=O)C2=C(C1)Nc1n[nH]cc1C2c1ccc(Sc2nc3ccccc3[nH]2)o1 (stereo not shown) [Example 37, 4-[5-(1H-Benzimidazol-2-ylsulfanyl)-furan-2-yl]-7-pentyl-2,4,6,7,8,9-hexahydro-pyrazolo[3,4-b]quinolin-5-one; compound with trifluoro-acetic acid] |
| 292 nM | 47 nM | O=C1CNCC2=C1C(c1ccc(Sc3nc4cc(C(F)(F)F)ccc4[nH]3)o1)c1c[nH]nc1N2 (stereo not shown) [Example 97] |
| 82 nM | 10 nM | CCOC(=O)c1[nH]cc2c1NC1=C(C(=O)CNC1)C2c1ccc(Sc2nc3cc(Cl)ccc3[nH]2)o1 (stereo not shown) [Example 131, 9-[5-(5-Chloro-1H-benzimidazol-2-ylsulfanyl)-furan-2-yl]-8-oxo-4,5,6,7,8,9-hexahydro-2H-pyrrolo[3,4-b]-1,7-naphthyridine-3-carboxylic acid ethyl ester hydrochloride] |
| 114 nM | 17 nM | CCOC(=O)c1[nH]cc2c1NC1=C(C(=O)CNC1)C2c1ccc(Sc2nc3cc(OC(F)F)ccc3[nH]2)o1 (stereo not shown) [Example 128, 9-[5-(5-Difluoromethoxy-1H-benzimidazol-2-ylsulfanyl)-furan-2-yl]-8-oxo-4,5,6,7,8,9-hexahydro-2H-pyrrolo[3,4-b]-1,7-naphthyridine-3-carboxylic acid ethyl ester hydrochloride] |
| 29 nM | 19 nM | CCOC(=O)c1[nH]cc2c1NC1=C(C(=O)CCC1)C2c1ccc(Sc2nc3cc(OC(F)(F)F)ccc3[nH]2)o1 (stereo not shown) [Example 150, 8-Oxo-9-[5-(5-trifluoromethoxy-1H-benzimidazol-2-ylsulfanyl)-furan-2-yl]-4,5,6,7,8,9-hexahydro-2H-pyrrolo[3,4-b]quinoline-3-carboxylic acid ethyl ester] |
| 41 nM | 13 nM | CCOC(=O)c1[nH]cc2c1NC1=C(C(=O)CCC1)C2c1ccc(Sc2nc3cc(OC(F)F)ccc3[nH]2)o1 (stereo not shown) [Example 126, 9-[5-(5-Difluoromethoxy-1H-benzimidazol-2-ylsulfanyl)-furan-2-yl]-8-oxo-4,5,6,7,8,9-hexahydro-2H-pyrrolo[3,4-b]quinoline-3-carboxylic acid ethyl ester] |
| 31 nM | 8 nM | Cc1ccc2[nH]c(Sc3ccc(C4C5=C(CCCC5=O)Nc5n[nH]cc54)o3)nc2c1 (stereo not shown) [Example 70, 4-[5-(5-Methyl-1H-benzimidazol-2-ylsulfanyl)-furan-2-yl]-2,4,6,7,8,9-hexahydro-pyrazolo[3,4-b]quinolin-5-one; compound with trifluoro-acetic acid compound with trifluoro-acetic acid] |
| 82 nM | 17 nM | O=C1CNCC2=C1C(c1ccc(Sc3nc4cc(Cl)c(Cl)cc4[nH]3)o1)c1c[nH]nc1N2 (stereo not shown) [Example 86, 4-[5-(5,6-Dichloro-1H-benzoimidazol-2-ylsulfanyl)-furan-2-yl]-2,4,6,7,8,9-hexahydro-pyrazolo[3,4-b]-1,7-naphthyridin-5-one; compound with trifluoro-acetic acid] |
| 35 nM | 55 nM | O=C1CCCC2=C1C(c1ccc(Sc3nc4cc(Cl)ccc4s3)o1)c1c[nH]nc1N2 (stereo not shown) [Example 73, 4-[5-(5-Chloro-benzothiazol-2-ylsulfanyl)-furan-2-yl]-2,4,6,7,8,9-hexahydro-pyrazolo[3,4-b]quinolin-5-one; compound with trifluoro-acetic acid] |
| 19 nM | 5 nM | O=C1CC(c2ccc3c(c2)OCO3)CC2=C1C(c1ccc(Sc3nc4ccccc4[nH]3)o1)c1c[nH]nc1N2 (stereo not shown) [Example 35, 7-Benzo[1,3]dioxol-5-yl-4-[5-(1H-benzimidazol-2-ylsulfanyl)-furan-2-yl]-2,4,6,7,8,9-hexahydro-pyrazolo[3,4-b]quinolin-5-one; compound with trifluoro-acetic acid] |
